Experimental data reported in patent US9486493B2, “Use of a peptide and an analgesic pharmaceutical agent” (priority 2007, dated 2016).
Where no end group is shown, it is not given here.

Legend:
[1] = humans; cited from earlier work
[2] = tested on: pain reaction in mice with inflammation; experiment: Animal pain model of tumour metastasis (human ovarian cancer cells into a rear limb), tail dipping in 55° C water; format: in vivo; conditions: for dose necessitated for a similar analgesic effect: control group lacking the inflammation; for analgesic activity (pain reaction): mice with inflammation, after two weeks
Method: (§1) In an animal pain model of tumour metastasis, inflammation was induced though the injection of a million human ovarian cancer cells into a rear limb. After two days, we observed a progressing inflammation induced by tumour take. The analgesic activity of biphaline was observed after two weeks, during acute pain caused by tail dipping in water at a temperature of 55° C. […] In the control group, which lacked the inflammation, a similar analgesic effect necessitated the use of a dose of 1 mg/kg.
as §1, with “(Tyr-Ser-Gly-Phe-NH—)2” for “biphaline”, “4” for “1”

[3] = tested on: acute pain in rat with inflammation; experiment: Animal rheumatoid inflammation model (Mycobacterium butyricum into the tarsal joint), thermal stimulation of the tail; format: in vivo; conditions: for antinociceptive effects: control group; for analgesic effect on acute pain: rat with inflammation, 0.5 mg/kg, after two weeks
Method: In an animal rheumatoid inflammation model, an anaesthetised rat was injected with homogenates of thermically inactivated Mycobacterium butyricum suspended in sunflower oil at a volume ratio of 1:1 into the tarsal joint. After two weeks inflammation was observed. The analgesic effect on acute pain was observed using thermal stimulation of the tail.

[4] = tested on: pain reaction in mice with inflammation; experiment: Freund's adjuvant limb inflammation in mice, acute pain by tail dipping in 55° C water; format: in vivo
Method: Inflammation was induced in mice through the administration of Freund's adjuvant into a limb. After two days, a progressing inflammation was observed. The analgesic activity of biphalin was observed following a week, during acute pain caused by tail dipping in water at a temperature of 55° C.

[5] = intravenous administration; cited from earlier work
[6] = directly into the subarachnoid space (intrathecal), rats; cited from earlier work

CN1CC[C@]23c4c5ccc(O)c4O[C@H]2[C@@H](O)C=C[C@H]3[C@H]1C5 [morphine]
minimum effective dose usually used as an initial analgesic dose [1]: 1 mg

(Tyr-Ser-Gly-Phe-NH—)2 (YSGF; also: dimer linked via C-terminal NH hydrazide bridge) [opioid peptide, analogue of biphalin]
dose necessitated for a similar analgesic effect [2]: 4 mg/kg
analgesic activity (pain reaction) ([2]; 50 μg/kg intraperitoneal): complete disappearance of the pain reaction

(Tyr-D-Thr-Gly-Trp-NH—)2
antinociceptive effects ([3]; after administration of 4 mg/kg): no antinociceptive effects were observed
analgesic effect on acute pain [3]: completely blocked pain effects

C[C@@H](NC(=O)[C@@H](N)Cc1ccc(O)cc1)C(=O)NCC(=O)N[C@@H](Cc1ccccc1)C(=O)NNC(=O)[C@H](Cc1ccccc1)NC(=O)CNC(=O)[C@@H](C)NC(=O)[C@@H](N)Cc1ccc(O)cc1 [biphalin]
dose necessitated for a similar analgesic effect [2]: 1 mg/kg
analgesic activity (pain reaction) ([2]; 100 μg/kg intraperitoneal): complete disappearance of the pain reaction
analgesic activity (pain reaction) ([4]; control group lacking the inflammation, same dose 50 μg/kg intravenous): no effect was observed
analgesic activity (pain reaction) ([4]; mice with inflammation, 50 μg/kg intravenous, one week after Freund's adjuvant): complete disappearance of the pain reaction
activity relative to morphine [5]: equivalent to that of morphine
activity relative to morphine administered the same way [6]: ~1000 fold
antinociceptive effects ([3]; same amount (0.5 mg/kg)): no antinociceptive effects were observed
analgesic effect on acute pain [3]: completely blocked pain effects
